Drawing on patent publication US10189838B2, “Aza-oxo-indoles for the treatment and prophylaxis of respiratory syncytial virus infection” (Hoffmann-La Roche Inc., priority 2013, dated 2019), this text covers EC50 for 21 compounds.

The subject of the test is RSV Long strain. The test is described as follows: Viral cytopathic effect (CPE) assay, RSV Long strain. The test is classed as cell-based, Respiratory Syncytial Virus. The following applies: human respiratory syncytial virus, 144 h, cell viability after 6 days (Cell Counting kit-8). As to the method: EC50: the concentration of a compound where 50% of its maximal protection effect against viral induced CPE is observed
LongStrain: an A subtype RSV strain obtained from ATCC with catalog number VR-26
To measure anti-RSV activity of compounds, 96-well plates are seeded with 6×10^3 cells per well in Dulbecco's modified Eagle's medium (DMEM) containing 10% fetal bovine serum (FBS). Cells are infected the next day with sufficient RSV Long strain (ATCC) to produce an approximately 80-90% cytopathic effect after 6 days, in the presence of serial half-log diluted compound in a total volume of […] per well. The viability of cells is assessed after 6 days using Cell Counting kit-8 (Dojindo Molecular Technologies). The absorbance at 450 nm and referenced at 630 nm is measured to determine 50% effective concentration (EC50)
In general, EC50 refers to the concentration that produces a half-maximal response. The low end stands for an effect from little substance, the high end for a need for much substance. For the compound `[2H]C([2H])(c1cc2cc(Cl)ccc2n1CCCS(C)(=O)=O)N1C(=O)C2(CC2)c2ccncc21` [Example 10, 1′[{-5-Chloro-1-[3-(methylsulfonyl)propyl]-1H-indol-2-yl}(^2H2)methyl]spiro[cyclopropane-1,3′-pyrrolo[2,3-c]pyridin]-2′(1′H)-one], the EC50 is 19 nM. That is a double-digit nanomolar value.
As for `CCOC(=O)CCn1c(CN2C(=O)C3(CC3)c3ccncc32)cc2cc(Cl)ccc21` [Example 11, Ethyl 3-{5-chloro-2-[(2′-oxospiro[cyclopropane-1,3′-pyrrolo[2,3-c]pyridin]-1′(2′H)-yl)methyl]-1H-indol-1-yl}propanoate], the figure is 19 nM; as for `O=C1N(Cc2cc3cc(Cl)cnc3n2CCC2CS(=O)(=O)C2)c2cnccc2C12CC2` [Example 12, 1′-({5-Chloro-1-[2-(1,1-dioxidothietan-3-yl)ethyl]-1H-pyrrolo[2,3-b]pyridin-2-yl}methyl)spiro[cyclopropane-1,3′-pyrrolo[2,3-c]pyridin]-2′(1′H)-one], 29 nM.
Regarding `CCOC(=O)CCn1c(CN2C(=O)C3(CC3)c3ccncc32)cc2cc(Cl)cc(F)c21` [Example 13, Ethyl 3-{5-chloro-7-fluoro-2-[(2′-oxospiro[cyclopropane-1,3′-pyrrolo[2,3-c]pyridin]-1′(2′H)-yl)methyl]-1H-indol-1-yl}propanoate], the EC50 worked out at 18 nM.
Compound `CS(=N)(=O)CCCn1c(CN2C(=O)C3(CC3)c3ccncc32)cc2cc(Cl)ccc21` (stereo not drawn) [Example 14-1, 1′-({5-Chloro-1-[3-(S-methylsulfonimidoyl)propyl]-1H-indol-2-yl}methyl)spiro[cyclopropane-1,3′-pyrrolo[2,3-c]pyridin]-2′(1′H)-one] came in with an EC50 of 6 nM.
As for `CS(=N)(=O)CCn1c(CN2C(=O)C3(CC3)c3ccncc32)cc2cc(Cl)ccc21` (stereo not drawn) [Example 14-2, 1′-({5-Chloro-1-[2-(S-methylsulfonimidoyl)ethyl]-1H-indol-2-yl}methyl)spiro[cyclopropane-1,3′-pyrrolo[2,3-c]pyridin]-2′(1′H)-one], the figure is 7 nM.
As for `CS(=N)(=O)CCCCn1c(CN2C(=O)C3(CC3)c3ccncc32)cc2cc(Cl)cnc21` (stereo not drawn) [Example 14-3, 1′-({5-Chloro-1-[4-(S-methylsulfonimidoyl)butyl]-1H-pyrrolo[2,3-b]pyridin-2-yl}methyl)spiro[cyclopropane-1,3′-pyrrolo[2,3-c]pyridin]-2′(1′H)-one], the figure is 74 nM; as for `CS(=N)(=O)CCn1c(CN2C(=O)C3(CC3)c3ccncc32)cc2cc(Cl)cnc21` (stereo not drawn) [Example 14-4, 1′-({5-Chloro-1-[2-(S-methylsulfonimidoyl)ethyl]-1H-pyrrolo[2,3-b]pyridin-2-yl}methyl)spiro[cyclopropane-1,3′-pyrrolo[2,3-c]pyridin]-2′(1′H)-one], 172 nM.
`CC(=O)N=S(C)(=O)CCn1c(CN2C(=O)C3(CC3)c3ccncc32)cc2cc(Cl)ccc21` (stereo not drawn) [Example 15, N-[(2-{5-Chloro-2-[(2′-oxospiro[cyclopropane-1,3′-pyrrolo[2,3-c]pyridin]-1′(2′H)-yl)methyl]-1H-indol-1-yl}ethyl)(methyl)oxido-λ^6-sulfanylidene]acetamide] had an EC50 of 25 nM.
Turning to `O=C(O)CCn1c(CN2C(=O)C3(CC3)c3ccncc32)cc2cc(Cl)ccc21` [Example 16-1, 3-{5-Chloro-2-[(2′-oxospiro[cyclopropane-1,3′-pyrrolo[2,3-c]pyridin]-1′(2′H)-yl)methyl]-1H-indol-1-yl}propanoic acid], the response was half-maximal at 390 nM (EC50).
The compound `O=C(O)CCn1c(CN2C(=O)C3(CC3)c3ccncc32)cc2cc(Cl)cc(F)c21` [Example 16-2, 3-{5-Chloro-7-fluoro-2-[(2′-oxospiro[cyclopropane-1,3′-pyrrolo[2,3-c]pyridin]-1′(2′H)-yl)methyl]-1H-indol-1-yl}propanoic acid] yielded an EC50 of 300 nM.
Turning to `COC(=O)CCCn1c(CN2C(=O)C3(CC3)c3ccncc32)cc2cc(Cl)ccc21` [Example 17, Methyl 4-{5-chloro-2-[(2′-oxospiro[cyclopropane-1,3′-pyrrolo[2,3-c]pyridin]-1′(2′H)-yl)methyl]-1H-indol-1-yl}butanoate], the EC50 was 18.6 nM. This EC50 is about 16-fold lower than that of the compound before.
Consider `NC(=O)CCn1c(CN2C(=O)C3(CC3)c3ccncc32)cc2cc(Cl)ccc21` [Example 18-1, 3-{5-Chloro-2-[(2′-oxospiro[cyclopropane-1,3′-pyrrolo[2,3-c]pyridin]-1′(2′H)-yl)methyl]-1H-indol-1-yl}propanamide], for which the EC50 turned out to be 17 nM.
Regarding `NC(=O)CCn1c(CN2C(=O)C3(CC3)c3cccnc32)cc2cc(Cl)ccc21` [Example 18-2, 3-{5-Chloro-2-[(2′-oxospiro[cyclopropane-1,3′-pyrrolo[2,3-b]pyridin]-1′(2′H)-yl)methyl]-1H-indol-1-yl}propanamide], a half-maximal effect (EC50) was put at 711 nM.
As for `NC(=O)CCCn1c(CN2C(=O)C3(CC3)c3ccncc32)cc2cc(Cl)ccc21` [Example 18-3, 4-{5-Chloro-2-[(2′-oxospiro[cyclopropane-1,3′-pyrrolo[2,3-c]pyridin]-1′(2′H)-yl)methyl]-1H-indol-1-yl}butanamide], the figure is 11 nM.
In turn, `O=C(CCn1c(CN2C(=O)C3(CC3)c3ccncc32)cc2cc(Cl)ccc21)NS(=O)(=O)C1CC1` [Example 19-1, 3-{5-Chloro-2-[(2′-oxospiro[cyclopropane-1,3′-pyrrolo[2,3-c]pyridin]-1′(2′H)-yl)methyl]-1H-indol-1-yl}-N-(cyclopropylsulfonyl)propanamide] came in with an EC50 of 1180 nM.
In turn, `CN(C(=O)CCn1c(CN2C(=O)C3(CC3)c3ccncc32)cc2cc(Cl)ccc21)S(=O)(=O)C1CC1` [Example 19-2, 3-{5-Chloro-2-[(2′-oxospiro[cyclopropane-1,3′-pyrrolo[2,3-c]pyridin]-1′(2′H)-yl)methyl]-1H-indol-1-yl}-N-(cyclopropylsulfonyl)-N-methylpropanamide] returned an EC50 of 59 nM.
In the case of `CN(C(=O)CCn1c(CN2C(=O)C3(CC3)c3ccncc32)cc2cc(Cl)ccc21)S(C)(=O)=O` [Example 19-3, 3-{5-Chloro-2-[(2′-oxospiro[cyclopropane-1,3′-pyrrolo[2,3-c]pyridin]-1′(2′H)-yl)methyl]-1H-indol-1-yl}-N-methyl-N-(methylsulfonyl)propanamide], the EC50 amounted to 47 nM.
In turn, `O=C1CNC(=O)N1CCn1c(CN2C(=O)C3(CC3)c3ccncc32)cc2cc(Cl)ccc21` [Example 20, 3-(2-{5-Chloro-2-[(2′-oxospiro[cyclopropane-1,3′-pyrrolo[2,3-c]pyridin]-1′(2′H)-yl)methyl]-1H-indol-1-yl}ethyl)imidazolidine-2,4-dione] came in with an EC50 of 3480 nM.
In turn, `O=C1N(Cc2cc3cc(Cl)ccc3n2CCCN2CC[C@@H](O)C2)c2cnccc2C12CC2` [Example 21, 1′-[(5-Chloro-1-{3-[(3R)-3-hydroxypyrrolidin-1-yl]propyl}-1H-indol-2-yl)methyl]spiro[cyclopropane-1,3′-pyrrolo[2,3-c]pyridin]-2′(1′H)-one] displayed an EC50 of 544 nM.
As for `CCS(=O)(=O)CCCn1c(CN2C(=O)C3(CC3)c3ccncc32)cc2cc(Cl)ccc21` [Example 22-1, 1′-({5-Chloro-1-[3-(ethylsulfonyl)propyl]-1H-indol-2-yl}methyl)spiro[cyclopropane-1,3′-pyrrolo[2,3-c]pyridin]-2′(1′H)-one], the figure is 3 nM.
